Laboratory results published in publication PMC12632398 (bioRxiv, 2025).
Non-standard residues stand in square brackets, D forms with d. No end group written: not given here. Dap = NC[C@H](N)C(=O)O

Columns and labels:
[1] = test system: MCF-7 breast cancer cells; experiment: Cell viability assay for MCF-7, CellTiter Glo 2.0; format: cell-based; details: MCF-7 cells, 48 h; positive control compared with MP23
HaloTag protein in cells = experiment: Time-resolved CAPA; format: cell-based; details: 5μM MP1 and 1.62μM JQ1; reproduced in two independent experiments
HEK293 cells = experiment: Cell viability, CellTiter Glo 2.0, HEK293; format: cell-based; details: 100 μM, 12 hours, CellTiter Glo 2.0, three independent experiments
[2] = test system: Cells that express the HaloTag protein; details: CAPA; ratio of CP50 to that of JQ-1-Ct

| Compound | potency relative to MP23, MCF-7 viability [1] | kinetics of HaloTag protein alkylation, time-resolved CAPA (HaloTag protein in cells) | effect on the viability of HEK293 cells (HEK293 cells) | fold higher (poorer) CP50 than JQ-1-Ct [2] |
| --- | --- | --- | --- | --- |
| CC(C)[C@@H](CS(=O)(=O)C(C)C)N1C(=O)[C@@](C)(CC(=O)O)C[C@H](c2cccc(Cl)c2)[C@H]1c1ccc(Cl)cc1 [Navtemadlin] | about ten-fold more potent |  |  |  |
| [Dap]AWFK-NH2 (also: sidechain bridge or staple (positions not given here)) [MP1-Ct] |  | relatively rapid | no effect | 3.4 fold |
